# Source: PMC5421785, “Citrullination only infrequently impacts peptide binding to HLA class II MHC” (PLoS ONE, 2017)
# Read-outs that look alike come from different tables or passages of the source. Square brackets hold non-standard residues; d marks the D form. Peptide text beside a SMILES is read from it. Cit = NC(=O)NCCC[C@H](N)C(=O)O
# Columns and labels:
# HLA-DRB1*01:01 = target: T1, HLA-DRB1*01:01 (Homo sapiens, UniProt P01903+P01911, A100R/D57E/F55L/F60I/F76Y/I96L/L162R/M171V/P40L/Q125E/R42F/V115G/Y59C); experiment: HLA class II peptide binding, inhibition of radiolabeled peptide binding to purified MHC; conditions: for DRB1*01:01 binding capacity, WT/cit ratio: ratio of WT IC50 to Cit IC50, >1 = citrullination increases binding; for IC50: read-out: DRB1*01:01 binding capacity, Cit peptide (IC50 nM)
# T1 construct: EBV transformed homozygous cell lines were used as sources of MHC molecules; endogenous in cells; host or cells: EBV transformed homozygous cell lines
# HLA-DRB1*04:01 = target: T2, HLA-DRB1*04:01 (Homo sapiens, UniProt P01903+P01911, A100K/A169T/F76Y/I96L/K127E/L162R/M171V/N62H/P40V/Q125Y/R42H/S133A/S149N/S66Y/V115G/V209L/W38E); experiment: as above; conditions: for DRB1*04:01 binding capacity, WT/cit ratio: ratio of WT IC50 to Cit IC50, >1 = citrullination increases binding; for IC50: read-out: DRB1*04:01 binding capacity, Cit peptide (IC50 nM)
# T2 construct: EBV transformed homozygous cell lines were used as sources of MHC molecules; endogenous in cells; host or cells: EBV transformed homozygous cell lines
# [1] = citrullinated 15-mer peptide (X = citrulline), […]
# [2] = citrullinated 15-mer peptide (X = citrulline), purified HLA-DRB1*01:01
# [3] = citrullinated 15-mer peptide (X = citrulline), purified HLA-DRB1*04:01
# [4] = citrullinated 15-mer (X), purified MHC, inhibition of radiolabeled peptide binding, dash = IC50 >40,000 nM
SMILES,IC50 (HLA-DRB1*01:01; [2]) [nM],IC50 (HLA-DRB1*04:01; [3]) [nM],other results
CC[C@H](C)[C@H](NC(=O)[C@H](CCCNC(N)=O)NC(=O)[C@H](CS)NC(=O)[C@@H]1CCCN1)C(=O)N[C@@H](CS)C(=O)N[C@H](C(=O)N[C@@H](CS)C(=O)N[C@@H](CC(=O)O)C(=O)N[C@H](C(=O)NCC(=O)N[C@H](C(=O)N[C@H](C(=O)N[C@@H](CC(C)C)C(=O)N[C@@H](CS)C(=O)N[C@@H](CC(=O)O)C(=O)O)C(C)C)[C@@H](C)O)[C@@H](C)O)C(C)C [PCXICVCDTGTVLCD] (H-PC[Cit]ICVCDTGTVLCD-OH; N-terminus and C-terminus assumed),–,–,"DRB1*01:01 binding capacity, WT/cit ratio (HLA-DRB1*01:01): 0.463; DRB1*04:01 binding capacity, WT/cit ratio (HLA-DRB1*04:01): 1.2"
C[C@H](NC(=O)CNC(=O)[C@H](CCC(N)=O)NC(=O)[C@@H]1CCCN1C(=O)CNC(=O)[C@@H]1CCCN1C(=O)[C@@H]1CCCN1C(=O)CNC(=O)[C@H](CCCNC(N)=O)NC(=O)[C@@H]1CCCN1C(=O)CNC(=O)[C@@H]1CCCN1C(=O)[C@H](Cc1ccccc1)NC(=O)CNC(=O)[C@@H]1CCCN1)C(=O)O [PGFPGPXGPPGPQGA] (H-PGFPGP[Cit]GPPGPQGA-OH),–,–,IC50 (HLA-DRB1*01:01; [1]): > 40000 nM; IC50 (HLA-DRB1*04:01; [1]): 37800 nM
C[C@H](NC(=O)[C@@H]1CCCN1C(=O)CNC(=O)[C@@H]1CCCN1)C(=O)NCC(=O)N1CCC[C@H]1C(=O)N[C@H](C(=O)NCC(=O)N[C@@H](CCCCN)C(=O)N[C@@H](CCC(N)=O)C(=O)NCC(=O)N[C@@H](CC(=O)O)C(=O)N[C@@H](CCCNC(N)=O)C(=O)NCC(=O)N[C@@H](CCC(=O)O)C(=O)O)[C@@H](C)O [PGPAGPTGKQGDXGE] (H-PGPAGPTGKQGD[Cit]GE-OH; N-terminus and C-terminus assumed),> 40000,> 40000,"DRB1*01:01 binding capacity, WT/cit ratio (HLA-DRB1*01:01): 1.0; DRB1*04:01 binding capacity, WT/cit ratio (HLA-DRB1*04:01): 1.0"
CC(C)C[C@H](NC(=O)CNC(=O)[C@@H]1CCCN1C(=O)[C@H](Cc1ccccc1)NC(=O)CNC(=O)[C@H](CCCNC(N)=O)NC(=O)[C@H](CCC(=O)O)NC(=O)CNC(=O)[C@H](CCCNC(=N)N)NC(=O)[C@H](CCC(N)=O)NC(=O)CNC(=O)[C@@H]1CCCN1)C(=O)N1CCC[C@H]1C(=O)NCC(=O)N1CCC[C@H]1C(=O)O [PGQRGEXGFPGLPGP] (H-PGQRGE[Cit]GFPGLPGP-OH),10500,> 40000,–
C[C@H](NC(=O)[C@@H]1CCCN1C(=O)CNC(=O)[C@H](CCC(N)=O)NC(=O)[C@@H]1CCCN1C(=O)CNC(=O)[C@@H]1CCCN1C(=O)[C@@H]1CCCN1)C(=O)NCC(=O)N[C@@H](CCC(=O)O)C(=O)N[C@@H](CCC(N)=O)C(=O)NCC(=O)N1CCC[C@H]1C(=O)N[C@@H](CCCNC(N)=O)C(=O)NCC(=O)O [PPGPQGPAGEQGPXG] (H-PPGPQGPAGEQGP[Cit]G-OH),–,–,IC50 (HLA-DRB1*01:01; [1]): 35600 nM; IC50 (HLA-DRB1*04:01; [1]): > 40000 nM
CC(C)C[C@H](NC(=O)[C@H](CO)NC(=O)[C@H](CCCNC(N)=O)NC(=O)[C@H](CO)NC(=O)[C@@H](NC(=O)[C@H](CO)NC(=O)[C@@H]1CCCN1)[C@@H](C)O)C(=O)N[C@@H](Cc1ccc(O)cc1)C(=O)N[C@@H](C)C(=O)N[C@@H](CO)C(=O)N[C@@H](CO)C(=O)N1CCC[C@H]1C(=O)NCC(=O)NCC(=O)N[C@H](C(=O)O)C(C)C [PSTSXSLYASSPGGV],–,–,IC50 (HLA-DRB1*01:01; [4]): 524 nM; IC50 (HLA-DRB1*04:01; [4]): 2520 nM
C[C@H](NC(=O)CNC(=O)[C@H](C)NC(=O)[C@H](CCC(=O)O)NC(=O)CNC(=O)[C@H](CCCNC(N)=O)NC(=O)[C@H](CC(=O)O)NC(=O)CNC(=O)[C@H](CCC(N)=O)NC(=O)[C@H](CCCCN)NC(=O)CNC(=O)[C@@H](NC(=O)[C@@H]1CCCN1)[C@@H](C)O)C(=O)N[C@@H](CCC(N)=O)C(=O)NCC(=O)O [PTGKQGDXGEAGAQG] (H-PTGKQGD[Cit]GEAGAQG-OH; N-terminus and C-terminus assumed),> 40000,> 40000,"DRB1*01:01 binding capacity, WT/cit ratio (HLA-DRB1*01:01): 0.6; DRB1*04:01 binding capacity, WT/cit ratio (HLA-DRB1*04:01): 1.0"
CC(C)[C@H](NC(=O)[C@H](CCC(N)=O)NC(=O)[C@H](CCCNC(=N)N)NC(=O)[C@H](CCCNC(N)=O)NC(=O)[C@H](Cc1ccc(O)cc1)NC(=O)[C@H](CCC(=O)O)NC(=O)[C@@H](NC(=O)[C@H](CO)NC(=O)[C@H](CCC(=O)O)NC(=O)[C@H](CCC(N)=O)NC(=O)[C@H](CCCCN)NC(=O)[C@H](C)NC(=O)[C@@H](N)CCC(N)=O)[C@@H](C)O)C(=O)N[C@@H](CCC(N)=O)C(=O)N[C@@H](CO)C(=O)O [QAKQESTEYXRQVQS] (H-QAKQESTEY[Cit]RQVQS-OH),9030,> 40000,–
CC(C)[C@H](NC(=O)[C@H](CC(=O)O)NC(=O)[C@H](CCCCN)NC(=O)[C@H](CC(=O)O)NC(=O)[C@H](CC(N)=O)NC(=O)[C@H](Cc1ccc(O)cc1)NC(=O)[C@H](CCCNC(N)=O)NC(=O)[C@H](CCC(N)=O)NC(=O)CNC(=O)[C@H](CC(=O)O)NC(=O)[C@@H](N)CCC(N)=O)C(=O)N[C@@H](Cc1c[nH]c2ccccc12)C(=O)N[C@@H](CCCCN)C(=O)N1CCC[C@H]1C(=O)N[C@@H](CCC(=O)O)C(=O)O [QDGQXYNDKDVWKPE] (H-QDGQ[Cit]YNDKDVWKPE-OH; N-terminus and C-terminus assumed),> 40000,> 40000,"DRB1*01:01 binding capacity, WT/cit ratio (HLA-DRB1*01:01): 1.0; DRB1*04:01 binding capacity, WT/cit ratio (HLA-DRB1*04:01): 1.0"

# The next lines start with results.
IC50 (HLA-DRB1*01:01; [2]) [nM],IC50 (HLA-DRB1*04:01; [3]) [nM],SMILES,other results
122,12900,CC[C@H](C)[C@H](NC(=O)CNC(=O)[C@@H]1CCCN1)C(=O)N[C@@H](CC(=O)O)C(=O)N[C@@H](CCSC)C(=O)N[C@@H](CO)C(=O)N[C@@H](C)C(=O)N[C@@H](Cc1ccccc1)C(=O)N[C@@H](C)C(=O)NCC(=O)N[C@@H](CC(C)C)C(=O)NCC(=O)N1CCC[C@H]1C(=O)N[C@@H](CCCNC(N)=O)C(=O)N[C@@H](CCC(=O)O)C(=O)O [PGIDMSAFAGLGPXE] (H-PGIDMSAFAGLGP[Cit]E-OH),–
55,4170,CC[C@H](C)[C@H](NC(=O)CNC(=O)[C@H](C)NC(=O)[C@H](C)NC(=O)CNC(=O)[C@H](CCCNC(N)=O)NC(=O)[C@H](CCC(=O)O)NC(=O)CNC(=O)[C@@H]1CCCN1C(=O)[C@H](CCSC)NC(=O)CNC(=O)[C@H](CCC(N)=O)NC(=O)[C@H](CC(C)C)NC(=O)CNC(=O)[C@@H]1CCCN1)C(=O)O [PGLQGMPGEXGAAGI] (H-PGLQGMPGE[Cit]GAAGI-OH),–
109,> 40000,CC(C)C[C@H](NC(=O)CNC(=O)[C@@H]1CCCN1)C(=O)N[C@@H](CCCNC(N)=O)C(=O)NCC(=O)N[C@@H](CC(C)C)C(=O)N1CCC[C@H]1C(=O)NCC(=O)N[C@@H](CCCCN)C(=O)N[C@@H](CC(=O)O)C(=O)NCC(=O)N[C@@H](CCC(=O)O)C(=O)N[C@H](C(=O)NCC(=O)N[C@@H](C)C(=O)O)[C@@H](C)O [PGLXGLPGKDGETGA] (H-PGL[Cit]GLPGKDGETGA-OH),–
7.1,7920,CC[C@H](C)[C@H](NC(=O)CNC(=O)[C@H](CCCNC(N)=O)NC(=O)[C@H](CCC(N)=O)NC(=O)CNC(=O)[C@H](C)NC(=O)[C@H](CC(C)C)NC(=O)CNC(=O)[C@H](CCC(N)=O)NC(=O)[C@@H]1CCCN1C(=O)CNC(=O)[C@@H]1CCCN1)C(=O)N[C@H](C(=O)NCC(=O)N[C@@H](CC(C)C)C(=O)O)C(C)C [PGPQGLAGQXGIVGL],–
6470,> 40000,CC(C)C[C@H](NC(=O)CNC(=O)[C@@H]1CCCN1C(=O)[C@H](Cc1ccccc1)NC(=O)CNC(=O)[C@H](CCCNC(=N)N)NC(=O)[C@H](CCC(=O)O)NC(=O)CNC(=O)[C@H](CCCNC(N)=O)NC(=O)[C@H](CCC(N)=O)NC(=O)CNC(=O)[C@@H]1CCCN1)C(=O)N1CCC[C@H]1C(=O)NCC(=O)N1CCC[C@H]1C(=O)O [PGQXGERGFPGLPGP] (H-PGQ[Cit]GERGFPGLPGP-OH),–
448,1950,CC(C)C[C@H](NC(=O)[C@H](CO)NC(=O)[C@H](CO)NC(=O)[C@H](Cc1ccccc1)NC(=O)[C@H](CC(N)=O)NC(=O)[C@@H]1CCCN1)C(=O)N[C@@H](CC(N)=O)C(=O)N[C@@H](CC(C)C)C(=O)N[C@@H](CCCNC(N)=O)C(=O)N[C@@H](CCC(=O)O)C(=O)N[C@H](C(=O)N[C@@H](CC(N)=O)C(=O)N[C@@H](CC(C)C)C(=O)N[C@@H](CC(=O)O)C(=O)N[C@@H](CO)C(=O)O)[C@@H](C)O [PNFSSLNLXETNLDS] (H-PNFSSLNL[Cit]ETNLDS-OH),–
1740,7440,CC(C)[C@H](NC(=O)[C@H](CCC(N)=O)NC(=O)[C@H](CCCNC(N)=O)NC(=O)[C@H](CCCNC(=N)N)NC(=O)[C@H](Cc1ccc(O)cc1)NC(=O)[C@H](CCC(=O)O)NC(=O)[C@@H](NC(=O)[C@H](CO)NC(=O)[C@H](CCC(=O)O)NC(=O)[C@H](CCC(N)=O)NC(=O)[C@H](CCCCN)NC(=O)[C@H](C)NC(=O)[C@@H](N)CCC(N)=O)[C@@H](C)O)C(=O)N[C@@H](CCC(N)=O)C(=O)N[C@@H](CO)C(=O)O [QAKQESTEYRXQVQS] (H-QAKQESTEYR[Cit]QVQS-OH),–
5890,3940,CC[C@H](C)[C@H](NC(=O)[C@H](CCC(=O)O)NC(=O)[C@H](CC(=O)O)NC(=O)[C@@H](N)CCC(N)=O)C(=O)N[C@@H](CCC(N)=O)C(=O)N[C@@H](CC(N)=O)C(=O)N[C@@H](CCSC)C(=O)N[C@@H](CCCCN)C(=O)N[C@@H](CCC(=O)O)C(=O)N[C@@H](CCC(=O)O)C(=O)N[C@@H](CCSC)C(=O)N[C@@H](C)C(=O)N[C@@H](CCCNC(N)=O)C(=O)N[C@@H](Cc1c[nH]cn1)C(=O)N[C@@H](CC(C)C)C(=O)O [QDEIQNMKEEMAXHL],–
